Laboratory results as given in paper PMC5061469 (International Journal for Parasitology: Drugs and Drug …, 2016).
“And” between values parts separate entries of the source, which are not always exact repeats. Identical values can stand only once. “Also recorded” adds a separate entry of the source. Like-named read-outs stand apart in the source and are kept apart here.

What was measured:
[1] = test system: Salmonella typhimurium TA1535/pSK1002; test: Genotoxicity assay, SOS/umu test; format: cell-based; conditions: for genotoxicity (SOS/umu test): with or without S9 fraction; for induction factor (IF): at non-cytotoxic concentrations with or without S9 fraction
[2] = test system: multidrug resistant FCR-3 strain of P. falciparum; test: In vitro antiplasmodial activity; format: cell-based, Plasmodium falciparum
[3] = test system: multidrug resistant (C235) strain of P. falciparum; test: In vitro antiplasmodial activity; format: cell-based, Plasmodium falciparum
[4] = test system: β-hematin formation; test: β-hematin inhibition assay; format: biochemical; conditions: screened between 0.44 and 110 μM; for IC50: read-out: β-hematin inhibition activity IC50
[5] = test system: chloroquine sensitive (D6) strain of P. falciparum; test: In vitro antiplasmodial activity; format: cell-based, Plasmodium falciparum
[6] = Cytotoxicity assay; format: cell-based, African Green Monkey; conditions: African green monkey, VERO cells (kidney epithelial cells)
[7] = test system: VERO cells; test: Cytotoxicity assay; format: cell-based, African Green Monkey; conditions: for SI (selectivity index): CC50 (cytotoxicity)/IC50 (FCR-3); for CC50: inhibition of 50% of VERO cells survival, 48 h, MTT
[8] = molecular target: PM2 (plasmepsin II) (Plasmodium falciparum, UniProt P46925); test: Plasmepsin assay; format: biochemical, P. falciparum; conditions: tested at 5 μM
Sequence of PM2 (plasmepsin II) (P46925 125-453): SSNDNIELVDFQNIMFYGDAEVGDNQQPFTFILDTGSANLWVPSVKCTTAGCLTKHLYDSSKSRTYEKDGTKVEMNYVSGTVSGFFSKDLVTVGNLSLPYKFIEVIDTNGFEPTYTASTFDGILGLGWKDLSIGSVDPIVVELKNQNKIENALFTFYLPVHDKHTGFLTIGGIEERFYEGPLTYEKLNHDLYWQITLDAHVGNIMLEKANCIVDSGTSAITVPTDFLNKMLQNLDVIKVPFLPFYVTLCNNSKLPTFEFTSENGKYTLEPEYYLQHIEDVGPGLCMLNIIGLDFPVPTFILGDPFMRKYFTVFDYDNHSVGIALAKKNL

[9] = test system: P. berghei ANKA; test: In vivo antimalarial activity, classical 4-day suppressive test; set-up: species or system Plasmodium berghei (Swiss male mice); conditions: oral 50 mg/kg/day x 4 days; for % Suppression of parasitemia: day 4
[10] = test system: hemozoin formation pathway in D6 culture; test: Target validation in P. falciparum, heme speciation assay; format: cell-based, Plasmodium falciparum; conditions: increasing concentrations of compound
[11] = Heme binding studies; conditions: 40% DMSO, 0.02 M HEPES, pH 7.4
[12] = Plasmodium falciparum, FCR3, read-out: FCR-3 IC50, P. falciparum multidrug-resistant strain FCR-3
[13] = Plasmodium falciparum, 72 h, read-out: Antimalarial activity IC50 C235, multidrug-resistant strain C235, 72 h
[14] = Plasmodium falciparum, D6, 72 h, read-out: Antimalarial activity IC50 D6, chloroquine sensitive strain D6, 72 h
[15] = read-out: FCR-3 IC50, P. falciparum multidrug-resistant strain FCR-3
[16] = read-out: Antimalarial activity IC50 D6, chloroquine sensitive strain D6, 72 h

Row | SMILES | genotoxicity (SOS/umu test) [1] | IC50 [2, 12] [µM] | CC50 at 48 h [6] [µM] | SI (selectivity index) [7] | inhibition of PM2 compared to the control [8] | IC50 [2, 15] [µM] | also measured
1 | Fc1ccc(C2=CCNCC2)cc1 [AM01, 4-(4-fluorophenyl)-1,2,3,6-tetrahydropyridine] | not considered genotoxic | 8.2 ± 2 |  |  |  |  | 
2 | O=[N+]([O-])c1ccc(NC2CCNCC2)c(C(F)(F)F)c1 [AM02, 4-(4-nitro-2-trifluoromethylphenyl)aminopiperidine] | not considered genotoxic | 4.3 ± 0.9 |  |  |  |  | 
3 | CCN(CC)CCCC(C)Nc1ccnc2cc(Cl)ccc12 (stereo not shown) [CQ, chloroquine, reference compound] |  | 0.13 | > 50 |  |  |  | IC50 [3, 13]: 0.048 ± 0.004 µM; IC50 [4]: 48.7 ± 2.7 µM; IC50 [5, 14]: 0.014 ± 0.001 µM
4 | O=[N+]([O-])c1ccc(N2CCN(CCC(O)c3csc4ccc(F)cc34)CC2)c(C(F)(F)F)c1 (stereo not shown) [Compound 14, 1-(5-fluorobenzo[b]thiophen-3-yl)-3-[4-(4-nitro-2-trifluoromethylphenyl)piperazin-1-yl] propan-1-ol] |  | 1.32 ± 0.2 | > 200 | >150 | no significant inhibition |  | 
5 | O=[N+]([O-])c1cc(C(F)(F)F)ccc1N1CCN(CCC(O)c2csc3ccc(F)cc23)CC1 (stereo not shown) [Compound 15, 1-(5-fluorobenzo[b]thiophen-3-yl)-3-[4-(2-nitro-4-trifluoromethylphenyl)piperazin-1-yl] propan-1-ol] |  | 2.23 ± 0.2 | > 150 | >50 |  |  | 
6 | OC(CCN1CCN(c2ccc(C(F)(F)F)cc2)CC1)c1csc2ccc(F)cc12 (stereo not shown) [Compound 16, 1-(5-fluorobenzo[b]thiophen-3-yl)-3-(4-(4-trifluoromethylphenyl)piperazin-1-yl) propan-1-ol] |  | 1.68 ± 0.6 | > 250 | >100 | no significant inhibition |  | 
7 | O=[N+]([O-])c1ccc(N2CCCN(CCC(O)c3csc4ccc(F)cc34)CC2)c(C(F)(F)F)c1 (stereo not shown) [Compound 17, 1-(5-fluorobenzo[b]thiophen-3-yl)-3-[4-(4-nitro-2-trifluoromethylphenyl)-1,4-diazepan-1-yl]propan-1-ol] |  | < 1 | 13.3 | 18 | no significant inhibition | 0.75 ± 0.02 | 
8 | O=[N+]([O-])c1ccc(N2CCC(NCCC(O)c3csc4ccc(F)cc34)CC2)c(C(F)(F)F)c1 (stereo not shown) [Compound 18] |  |  |  |  | no significant inhibition | 0.7 ± 0.1 | CC50 [7]: 6.3 µM
9 | OC(CCN1CC=C(c2ccc(F)cc2)CC1)c1ccc2ccccc2c1 (stereo not shown) [Compound 19, 3-[4-(4-fluorophenyl)-3,6-dihydropyridin-1(2H)-yl]-1-(naphthalen-2-yl)propan-1-ol] |  | 14 ± 3.5 | 24.6 | 1.75 |  |  | 
10 | OC(CCN1CC=C(c2ccc(F)cc2)CC1)c1ccc(C(F)(F)F)cc1 (stereo not shown) [Compound 20, 3-[4-(4-fluorophenyl)-3,6-dihydropyridin-1(2H)-y])-1-(4-(trifluoromethylphenyl)propan-1-ol] |  |  |  |  |  | 5.6 ± 2.3 | CC50 [7]: > 350 µM
11 | OC(CCN1CCN(c2ccc(C(F)(F)F)cc2)CC1)c1ccc(F)c2ccccc12 (stereo not shown) [Compound 21] |  |  |  |  |  | 0.93 ± 0.7 | CC50 [7]: > 100 µM
12 | O=[N+]([O-])c1ccc(N2CCC(NCCC(O)c3ccc(F)c4ccccc34)CC2)c(C(F)(F)F)c1 (stereo not shown) [Compound 22, 1-(4-Fluoronaphthalen-1-yl)-3-((1-(4-nitro-2-(trifluoromethyl)phenyl)piperidin-4-yl)amino) propan-1-ol] | absence of genotoxicity; also recorded: not considered genotoxic |  | 5.5 | 37 | no significant inhibition |  | MSD (mean survival time) ([9]; P. berghei-infected mice): > 35 days; cure / survival of treated mice ([9]; P. berghei-infected mice): complete cure; % Suppression of parasitemia ([9]; P. berghei-infected mice, 50 mg/kg/day): 98 ± 1% and 98%; signs of toxicity in treated mice [9]: no signs of toxicity; induction factor (IF) [1]: lower than 2; levels of free heme and hemozoin [10]: remained constant; IC50 [4]: 80.7 ± 1.7 µM; IC50 [5, 14]: ≤ 0.19 µM; IC50 [5, 16]: 0.11 ± 0.01 µM; affinity for the μ-oxo dimer form of heme (binding curve) [11]: affinity resembling that of chloroquine
13 | OC(CCN1CC=C(c2ccc(F)cc2)CC1)c1ccc(F)c2ccccc12 (stereo not shown) [Compound 23, 1-(4-Fluoronaphthalen-1-yl)-3-[4-(4-fluorophenyl)-3,6-dihydropyridin-1(2H)-yl] propan-1-ol] | absence of genotoxicity; also recorded: not considered genotoxic |  | 49.5 | 124 | no significant inhibition |  | MSD (mean survival time) ([9]; P. berghei-infected mice): 9 days; % Suppression of parasitemia ([9]; P. berghei-infected mice): 73 ± 16%; induction factor (IF) [1]: lower than 2; IC50 [3, 13]: ≤ 0.28 µM; IC50 ([3]; read-out: Antimalarial activity IC50 C235, multidrug-resistant strain C235, 72 h): 0.28 ± 0.05 µM; β-hematin inhibition activity IC50 [4]: Not active; IC50 [5, 14]: ≤ 0.19 µM; IC50 [5, 16]: 0.19 ± 0.04 µM
14 | O=[N+]([O-])c1ccc(N2CCN(CCC(O)c3ccc(F)cc3)CC2)c(C(F)(F)F)c1 (stereo not shown) [Compound 24, 1-(4-fluorophenyl)-3-[4-(4-nitro-2-trifluoromethylphenyl)piperazin-1-yl]propan-1-ol] | absence of genotoxicity; also recorded: not considered genotoxic |  | 88 | 244 | no significant inhibition |  | MSD (mean survival time) ([9]; P. berghei-infected mice): 8 days; % Suppression of parasitemia ([9]; P. berghei-infected mice): 17 ± 8%; induction factor (IF) [1]: lower than 2
15 | OC(CCN1CC=C(c2ccc(F)cc2)CC1)c1ccc(F)cc1 (stereo not shown) [Compound 26, 1-(4-fluorophenyl)-3-[4-(4-fluorophenyl)-3,6-dihydropyridin-1(2H)-yl]propan-1-ol] |  | < 1 | > 100 | >150 |  | 0.66 ± 0.01 | 
16 | COc1cccc2c1C(=O)c1c(O)c3c(c(O)c1C2=O)C[C@@](O)(C(=O)CO)C[C@@H]3O[C@H]1C[C@H](N)[C@H](O)[C@H](C)O1 [Doxorubicin, reference compound] |  |  | 6.4 |  |  |  | 
